# Results from patent publication US20250152585A1, “PHARMACEUTICAL COMPOUND” (Duke Street Bio Limited, priority 2022, published 2025).
# pIC50, pKd: −log10 of the molar value.
# What was measured:
# PARP1 [1] = settings: Johannes et al. J. Med. Chem. 2021; cited from earlier work
# [2] = rodent models; compared with first-generation PARP inhibitors; Illuzzi et al. 2022; cited from earlier work
# [3] = molecular target: T1, full length N-terminally FLAG-tagged PARP1 (Homo sapiens, UniProt P09874); experiment: PARP1 biochemical DELFIA assay (auto-PARylation); set-up: recombinant full length human N-terminally FLAG-tagged PARP1; settings: binned IC50, biochemical auto-PARylation assay
# T1 sequence (P09874 whole entry, the tested form may be a part): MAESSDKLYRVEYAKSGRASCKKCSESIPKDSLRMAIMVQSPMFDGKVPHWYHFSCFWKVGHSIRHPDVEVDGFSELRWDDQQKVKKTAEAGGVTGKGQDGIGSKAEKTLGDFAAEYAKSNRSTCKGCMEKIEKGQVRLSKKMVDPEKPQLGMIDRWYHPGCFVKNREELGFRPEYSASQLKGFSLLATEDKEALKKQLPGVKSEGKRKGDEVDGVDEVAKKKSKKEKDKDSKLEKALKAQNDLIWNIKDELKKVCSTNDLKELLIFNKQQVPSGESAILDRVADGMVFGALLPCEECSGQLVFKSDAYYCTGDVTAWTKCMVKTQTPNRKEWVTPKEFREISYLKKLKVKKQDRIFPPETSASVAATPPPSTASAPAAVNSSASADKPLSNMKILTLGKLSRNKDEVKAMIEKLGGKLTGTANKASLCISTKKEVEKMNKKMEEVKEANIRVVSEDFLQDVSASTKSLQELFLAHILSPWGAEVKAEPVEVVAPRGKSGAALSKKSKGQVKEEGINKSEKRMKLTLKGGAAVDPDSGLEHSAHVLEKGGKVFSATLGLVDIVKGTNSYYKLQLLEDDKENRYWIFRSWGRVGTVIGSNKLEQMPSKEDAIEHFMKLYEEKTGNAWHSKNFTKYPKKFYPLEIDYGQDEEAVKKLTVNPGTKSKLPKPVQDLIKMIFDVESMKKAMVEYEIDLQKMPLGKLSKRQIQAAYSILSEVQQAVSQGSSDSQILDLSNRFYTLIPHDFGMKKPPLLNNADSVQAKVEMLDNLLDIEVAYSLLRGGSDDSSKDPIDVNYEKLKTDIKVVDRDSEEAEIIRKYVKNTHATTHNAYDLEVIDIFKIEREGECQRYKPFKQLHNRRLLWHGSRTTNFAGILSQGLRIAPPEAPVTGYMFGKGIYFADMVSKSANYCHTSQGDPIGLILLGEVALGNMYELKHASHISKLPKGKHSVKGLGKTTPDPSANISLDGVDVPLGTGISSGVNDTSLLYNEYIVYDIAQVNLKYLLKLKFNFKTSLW
# [4] = molecular target: T2, N-terminally FLAG-tagged PARP2 (amino acids 1-583) (Homo sapiens, UniProt Q9UGN5); experiment: PARP2 probe displacement HTRF assay; type: binding; settings: binned Kd, probe displacement HTRF
# T2 construct: N-terminally FLAG-tagged PARP2 (amino acids 1-583)
# T2 sequence (Q9UGN5 whole entry, the tested form may be a part): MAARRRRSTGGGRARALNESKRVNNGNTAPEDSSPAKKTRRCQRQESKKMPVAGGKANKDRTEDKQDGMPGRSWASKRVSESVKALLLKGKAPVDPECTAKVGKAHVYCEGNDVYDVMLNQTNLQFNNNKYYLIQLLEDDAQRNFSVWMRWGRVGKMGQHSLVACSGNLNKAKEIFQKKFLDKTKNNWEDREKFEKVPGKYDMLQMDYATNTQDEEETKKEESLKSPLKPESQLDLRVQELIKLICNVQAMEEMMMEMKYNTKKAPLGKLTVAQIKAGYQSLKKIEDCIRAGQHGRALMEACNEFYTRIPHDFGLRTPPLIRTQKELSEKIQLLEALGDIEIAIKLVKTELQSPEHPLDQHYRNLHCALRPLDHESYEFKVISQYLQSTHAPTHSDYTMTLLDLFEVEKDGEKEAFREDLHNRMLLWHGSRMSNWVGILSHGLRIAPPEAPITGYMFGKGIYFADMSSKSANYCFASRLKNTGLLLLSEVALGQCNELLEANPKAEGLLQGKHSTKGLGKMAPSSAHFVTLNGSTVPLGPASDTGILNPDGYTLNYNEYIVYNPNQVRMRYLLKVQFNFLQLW
# Experimental: Data analysis was performed identical as for PARP1.
# [5] = molecular target: T1, full length N-terminally FLAG-tagged PARP1; experiment: PARP1 probe displacement HTRF assay; settings: probe displacement HTRF; for pKd: PARP1 HTRF, binned Kd; for Selectivity: PARP1 over PARP2, ratio Kd (PARP2)/Kd (PARP1)
# PARP1 [6] = molecular target: T3, PARP1 (Homo sapiens, UniProt P09874); experiment: NanoBRET cellular target occupancy assay, PARP1; type: cell-based; settings: for pKd: HEK293 cells transiently transfected with PARP1-NanoLuc fusion, tracer 11 nM, 2 hours at 37° C., Kd by Cheng-Prussoff; for Selectivity: NanoBRET, PARP1 over PARP2, Kd (PARP2)/Kd (PARP1)
# T3 construct: host or cells: HEK293
# T3 sequence (P09874 whole entry, the tested form may be a part): as the sequence (P09874 whole entry, the tested form may be a part) above
# PARP2 = molecular target: T4, PARP2 (Homo sapiens, UniProt Q9UGN5); experiment: NanoBRET cellular target occupancy assay, PARP2; type: cell-based; settings: HEK293 cells transiently transfected with PARP2-NanoLuc fusion; tracer 2 nM; 2 hours at 37° C.; Kd by Cheng-Prussoff
# T4 construct: host or cells: HEK293
# T4 sequence (Q9UGN5 whole entry, the tested form may be a part): as the sequence (Q9UGN5 whole entry, the tested form may be a part) above
# Description: NanoBRET Cellular Target Occupancy Assay
compound,measurement,setting,value
CCc1cc2ncc(CN3CCN(c4ccc(C(=O)NC)nc4)CC3)cc2[nH]c1=O [AZD5305],selectivity over PARP2,PARP1 [1],500 fold
same,haematotoxicity,[2],significantly less haematotoxicity
CCc1cnc(C23CC(C2)N(C2CCN(c4ccc(C(=O)NC)nc4F)CC2)C3)[nH]c1=O [Compound 300],pIC50,[3],> 8.00
same,pKd,[4],5.00 to 6.00
same,pKd,[5],> 8.00
same,Selectivity,[5],+++ (+++ indicate a value of at least 100)
same,pKd,PARP1 [6],> 8.00
same,Selectivity,PARP1 [6],+++ (+++ indicate a value of at least 100)
same,pKd,PARP2,< 5.00
CNC(=O)c1ccc(N2CCC(N3CC4(c5nc6c(c(=O)[nH]5)CCC6)CC3C4)CC2)c(F)n1 [Compound 302],pIC50,[3],> 8.00
same,pKd,[4],< 5.00
same,pKd,[5],> 8.00
same,Selectivity,[5],+++ (+++ indicate a value of at least 100)
same,pKd,PARP1 [6],7.00 to 8.00
same,Selectivity,PARP1 [6],+++ (+++ indicate a value of at least 100)
same,pKd,PARP2,< 5.00
CNC(=O)c1ccc(N2CCC(N3CC4(c5nc6c(c(=O)[nH]5)CCCN6)CC3C4)CC2)cn1 [Compound 312],pIC50,[3],> 8.00
same,pKd,[4],6.00 to 7.00
same,pKd,[5],> 8.00
same,Selectivity,[5],+++ (+++ indicate a value of at least 100)
same,pKd,PARP1 [6],6.00 to 7.00
same,Selectivity,PARP1 [6],++ (++ indicates a value of 50 to less than 100)
same,pKd,PARP2,5.00 to 6.00
CNC(=O)c1ccc(N2CCC(N3CC4(c5nc6c(c(=O)[nH]5)CCCN6C)CC3C4)CC2)cn1 [Compound 330],pIC50,[3],> 8.00
same,pKd,[4],7.00 to 8.00
same,pKd,[5],> 8.00
same,Selectivity,[5],+ (+ indicates a value of 10 to less than 50)
same,pKd,PARP1 [6],7.00 to 8.00
same,Selectivity,PARP1 [6],+ (+ indicates a value of 10 to less than 50)
same,pKd,PARP2,6.00 to 7.00
